According to patent publication US4321265A, “7α-Methoxycephalosporins” (Toyama Chemical Co., Ltd., priority 1977, dated 1982):
In brackets after ≈: the same amount, converted by molar mass.

Tests used:
Assay in all cases: Minimum inhibitory concentration (MIC), Heart Infusion agar
Format in all cases: cell-based
Ser. marcescens W-35 = settings: Serratia marcescens, W35, 20 h, Ser. marcescens W-35; 10^6 cells/ml; 20 hours, 37° C. (Table 1); read-out: minimum inhibitory concentration (MIC)
Method: (§1) Antibacterial activities of the representative compounds (Ib) of the 7α-methoxycephalosporins according to this invention are shown in Table 1. [drawing 20]
The figures given in Table 1 represent the minimum inhibitory concentration (MIC in mcg/ml) of each compound, which was determined according to the method described in "Chemotherapy (Society of Chemotherapy, Japan), Vol. 16, 98-99 (1968)": A culture obtained by cultivating the test bacterium in a Heart Infusion broth (Eiken Kagaku Co.) was inoculated into a Heart Infusion agar medium (Eiken Kagaku Co.). After 20 hours of the incubation at 37° C., the growth of the bacterium was inspected to determine the minimum inhibitory concentration (MIC in mcg/ml). […]
(§2) (1) Minimum inhibitory concentration (MIC in mcg/ml).

Citrobacter N-7 = settings: N7; Citrobacter N-7; 10^6 cells/ml; 20 hours, 37° C.; read-out: minimum inhibitory concentration (MIC)
Method: as §1
(§3) The figures given in Table 1 represent the minimum inhibitory concentration (MIC in mcg/ml) of each compound, which was determined according to the method described in "Chemotherapy (Society of Chemotherapy, Japan), Vol. 16, 98-99 (1968)": A culture obtained by cultivating the test bacterium in a Heart Infusion broth (Eiken Kagaku Co.) was inoculated into a Heart Infusion agar medium (Eiken Kagaku Co.). After 20 hours of the incubation at 37° C., the growth of the bacterium was inspected to determine the minimum inhibitory concentration (MIC in mcg/ml). The inoculation rate of the bacterium was 10^4 cells/plate (10^6 cells/ml).
as §2

Klebsiella spp. Y-72 = settings: SPP.Y72; Klebsiella spp. Y-72; 10^6 cells/ml; 20 hours, 37° C.; read-out: minimum inhibitory concentration (MIC)
Method: as §1, §3, §2

K. pneumoniae Y-50 = settings: Klebsiella pneumoniae, Y50; K. pneumoniae Y-50; 10^6 cells/ml; 20 hours, 37° C.; read-out: minimum inhibitory concentration (MIC)
Method: as §1, §3, §2

[1] = test system: Acinetobacter caloaceticus A-6; settings: A6; Acinetobacter caloaceticus A-6; 10^6 cells/ml; 20 hours, 37° C.; read-out: minimum inhibitory concentration (MIC)
Method: as §1, §3, §2

Prot. vulgaris GN-76 = settings: Proteus vulgaris, GN76; Prot. vulgaris GN-76; 10^6 cells/ml; 20 hours, 37° C.; read-out: minimum inhibitory concentration (MIC)
Method: as §1, §3, §2

E. coli NIHJ = settings: Escherichia coli; E. coli NIHJ; 10^6 cells/ml; 20 hours, 37° C.; read-out: minimum inhibitory concentration (MIC)
Method: as §1, §3, §2

Ent. cloacae IID977 = settings: Enterobacter cloacae; Ent. cloacae IID977; 10^6 cells/ml; 20 hours, 37° C.; read-out: minimum inhibitory concentration (MIC)
Method: as §1, §3, §2

Ser. marcescens IID620 = settings: Serratia marcescens; Ser. marcescens IID620; 10^6 cells/ml; 20 hours, 37° C.; read-out: minimum inhibitory concentration (MIC)
Method: as §1, §3, §2

Ps. aeruginosa IFO-3445 = settings: Pseudomonas aeruginosa, IFO3445; Ps. aeruginosa IFO-3445; 10^6 cells/ml; 20 hours, 37° C.; read-out: minimum inhibitory concentration (MIC)
Method: as §1, §3, §2

[2] = test system: C. freundii GN-346 (Cephalosporinase-producing bacterium); settings: Citrobacter freundii, GN346; C. freundii GN-346; 10^6 cells/ml; 20 hours, 37° C.; read-out: minimum inhibitory concentration (MIC)
Method: as §1, §3, §2

Ps. aeruginosa S-68 = settings: Pseudomonas aeruginosa, S68; Ps. aeruginosa S-68; 10^6 cells/ml; 20 hours, 37° C.; read-out: minimum inhibitory concentration (MIC)
Method: as §1, §3, §2

Ser. marcescens W-8 = settings: Serratia marcescens, W8; Ser. marcescens W-8; 10^6 cells/ml; 20 hours, 37° C.; read-out: minimum inhibitory concentration (MIC)
Method: as §1, §3, §2

[3] = test system: S. aureus F-19 (Penicillinase-producing bacterium); settings: Staphylococcus aureus; S. aureus F-19; 10^6 cells/ml; 20 hours, 37° C.; read-out: minimum inhibitory concentration (MIC)
Method: as §1, §3, §2

| SMILES | MIC (Ser. marcescens W-35) [µg/mL] | MIC (Citrobacter N-7) [µg/mL] | MIC (Klebsiella spp. Y-72) [µg/mL] | MIC (K. pneumoniae Y-50) [µg/mL] | MIC [1] [µg/mL] | MIC (Prot. vulgaris GN-76) [µg/mL] | MIC (E. coli NIHJ) [µg/mL] | MIC (Ent. cloacae IID977) [µg/mL] | MIC (Ser. marcescens IID620) [µg/mL] | MIC (Ps. aeruginosa IFO-3445) [µg/mL] | MIC [2] [µg/mL] | MIC (Ps. aeruginosa S-68) [µg/mL] | MIC (Ser. marcescens W-8) [µg/mL] | MIC [3] [µg/mL] |
| --- | --- | --- | --- | --- | --- | --- | --- | --- | --- | --- | --- | --- | --- | --- |
| CCN1CCN(C(=O)NC(C(=O)N[C@]2(OC)C(=O)N3C(C(=O)O)=C(CSc4nncs4)CS[C@@H]32)c2cccs2)C(=O)C1=O (stereo partly drawn) | 12.5 (≈ 18.7 µM) | 12.5 (≈ 18.7 µM) | 1.56 (≈ 2.34 µM) | 0.39 (≈ 0.584 µM) | 12.5 (≈ 18.7 µM) | 0.78 (≈ 1.17 µM) | ≤ 0.1 | 100 (≈ 150 µM) | 0.78 (≈ 1.17 µM) | 25 (≈ 37.4 µM) | 100 (≈ 150 µM) | 25 (≈ 37.4 µM) | 25 (≈ 37.4 µM) | 6.25 (≈ 9.36 µM) |
| CCN1CCN(C(=O)NC(C(=O)N[C@]2(OC)C(=O)N3C(C(=O)O)=C(CSc4nnnn4CCN)CS[C@@H]32)c2cccs2)C(=O)C1=O (stereo partly drawn) | 6.25 (≈ 9 µM) | 3.13 (≈ 4.51 µM) | 3.13 (≈ 4.51 µM) | 0.78 (≈ 1.12 µM) | 12.5 (≈ 18 µM) | 0.78 (≈ 1.12 µM) | ≤ 0.1 | 50 (≈ 72 µM) | 0.2 (≈ 0.288 µM) | 12.5 (≈ 18 µM) | 25 (≈ 36 µM) | 12.5 (≈ 18 µM) | 50 (≈ 72 µM) | 6.25 (≈ 9 µM) |
| CCN1CCN(C(=O)NC(C(=O)N[C@]2(OC)C(=O)N3C(C(=O)O)=C(CSc4nnnn4C)CS[C@@H]32)c2csc(N)n2)C(=O)C1=O (stereo partly drawn) | – | 1.56 (≈ 2.29 µM) | 1.56 (≈ 2.29 µM) | 0.2 (≈ 0.293 µM) | 25 (≈ 36.7 µM) | 0.78 (≈ 1.14 µM) | ≤ 0.1 | 25 (≈ 36.7 µM) | ≤ 0.1 | 12.5 (≈ 18.3 µM) | 50 (≈ 73.3 µM) | 25 (≈ 36.7 µM) | 100 (≈ 147 µM) | 3.13 (≈ 4.59 µM) |
| CCN1CCN(C(=O)NC(C(=O)N[C@]2(OC)C(=O)N3C(C(=O)O)=C(CSc4nnnn4CC(C)=NO)CS[C@@H]32)c2cccs2)C(=O)C1=O (stereo partly drawn) | 25 (≈ 34.6 µM) | 6.25 (≈ 8.65 µM) | 6.25 (≈ 8.65 µM) | 0.78 (≈ 1.08 µM) | 12.5 (≈ 17.3 µM) | 0.78 (≈ 1.08 µM) | ≤ 0.1 | 25 (≈ 34.6 µM) | 0.2 (≈ 0.277 µM) | 25 (≈ 34.6 µM) | 50 (≈ 69.2 µM) | 12.5 (≈ 17.3 µM) | 50 (≈ 69.2 µM) | 3.13 (≈ 4.33 µM) |
| CCN1CCN(C(=O)NC(C(=O)N[C@]2(OC)C(=O)N3C(C(=O)O)=C(CSc4nnnn4CC(N)=O)CS[C@@H]32)c2cccs2)C(=O)C1=O (stereo partly drawn) | 12.5 (≈ 17.6 µM) | 3.13 (≈ 4.42 µM) | 1.56 (≈ 2.2 µM) | 0.39 (≈ 0.55 µM) | 6.25 (≈ 8.82 µM) | 0.78 (≈ 1.1 µM) | ≤ 0.1 | 12.5 (≈ 17.6 µM) | 0.2 (≈ 0.282 µM) | 12.5 (≈ 17.6 µM) | – | 12.5 (≈ 17.6 µM) | 25 (≈ 35.3 µM) | 3.13 (≈ 4.42 µM) |
| CCN1CCN(C(=O)NC(C(=O)N[C@]2(OC)C(=O)N3C(C(=O)O)=C(CSc4nnnn4CC(N)=O)CS[C@@H]32)c2csc(N)n2)C(=O)C1=O (stereo partly drawn) | – | – | – | – | 12.5 (≈ 17.2 µM) | 1.56 (≈ 2.15 µM) | ≤ 0.1 | – | ≤ 0.1 | 12.5 (≈ 17.2 µM) | – | – | – | 3.13 (≈ 4.32 µM) |
| CCN1CCN(C(=O)NC(C(=O)N[C@]2(OC)C(=O)N3C(C(=O)O)=C(CSc4nnnn4C)CS[C@@H]32)c2ccco2)C(=O)C1=O (stereo partly drawn) | 12.5 (≈ 19.2 µM) | – | 6.25 (≈ 9.62 µM) | 0.2 (≈ 0.308 µM) | 12.5 (≈ 19.2 µM) | 0.78 (≈ 1.2 µM) | ≤ 0.1 | 25 (≈ 38.5 µM) | ≤ 0.1 | 12.5 (≈ 19.2 µM) | 25 (≈ 38.5 µM) | 25 (≈ 38.5 µM) | 100 (≈ 154 µM) | 6.25 (≈ 9.62 µM) |
| CCN1CCN(C(=O)NC(C(=O)N[C@]2(OC)C(=O)N3C(C(=O)O)=C(CSc4nnnn4CCO)CS[C@@H]32)c2ccco2)C(=O)C1=O (stereo partly drawn) | – | – | – | 0.2 (≈ 0.294 µM) | – | 1.56 (≈ 2.3 µM) | ≤ 0.1 | 25 (≈ 36.8 µM) | ≤ 0.1 | 12.5 (≈ 18.4 µM) | – | – | – | 6.25 (≈ 9.2 µM) |
| CCN1CCN(C(=O)NC(C(=O)N[C@]2(OC)C(=O)N3C(C(=O)O)=C(COC(C)=O)CS[C@@H]32)c2csc(N)n2)C(=O)C1=O (stereo partly drawn) [OCOCH3] | – | – | – | – | 25 (≈ 40 µM) | 3.13 (≈ 5 µM) | ≤ 0.1 | – | 0.39 (≈ 0.623 µM) | 25 (≈ 40 µM) | – | – | – | 6.25 (≈ 9.99 µM) |
| CCN1CCN(C(=O)NC(C(=O)N[C@]2(OC)C(=O)N3C(C(=O)O)=C(CSc4nnnn4CC(N)=O)CS[C@@H]32)c2ccco2)C(=O)C1=O (stereo partly drawn) | 6.25 (≈ 9.02 µM) | – | – | 0.2 (≈ 0.289 µM) | – | 1.56 (≈ 2.25 µM) | ≤ 0.1 | 25 (≈ 36.1 µM) | ≤ 0.1 | 12.5 (≈ 18 µM) | – | – | – | 6.25 (≈ 9.02 µM) |
| CCN1CCN(C(=O)NC(C(=O)N[C@]2(OC)C(=O)N3C(C(=O)O)=C(CSc4nnc(C)s4)CS[C@@H]32)c2csc(N)n2)C(=O)C1=O (stereo partly drawn) | – | – | – | – | 25 (≈ 35.8 µM) | 3.13 (≈ 4.49 µM) | ≤ 0.1 | – | 0.39 (≈ 0.559 µM) | 25 (≈ 35.8 µM) | – | – | – | 6.25 (≈ 8.96 µM) |
| C=Cn1nnnc1SCC1=C(C(=O)O)N2C(=O)[C@](NC(=O)C(NC(=O)N3CCN(CC)C(=O)C3=O)c3ccco3)(OC)[C@H]2SC1 (stereo partly drawn) | – | – | – | 0.2 (≈ 0.302 µM) | – | 3.13 (≈ 4.73 µM) | ≤ 0.1 | 25 (≈ 37.8 µM) | ≤ 0.1 | 25 (≈ 37.8 µM) | – | – | – | 3.13 (≈ 4.73 µM) |
| CCN1CCN(C(=O)NC(C(=O)N[C@]2(OC)C(=O)N3C(C(=O)O)=C(CSc4nnn(CCN(C)C)n4)CS[C@@H]32)c2cccs2)C(=O)C1=O (stereo partly drawn) | – | 3.13 (≈ 4.33 µM) | – | 0.78 (≈ 1.08 µM) | 25 (≈ 34.6 µM) | 3.13 (≈ 4.33 µM) | ≤ 0.1 | 25 (≈ 34.6 µM) | 0.2 (≈ 0.277 µM) | 50 (≈ 69.2 µM) | 25 (≈ 34.6 µM) | – | 50 (≈ 69.2 µM) | 6.25 (≈ 8.65 µM) |
